From patent publication US20130045939A1, “FATTY ACID MACROLIDE DERIVATIVES AND THEIR USES” (CATABASIS PHARMACEUTICALS, INC., priority 2010, published 2013)

Tested on: NF-κB
Assay: NF-κB luciferase reporter assay in LPS-stimulated RAW 264.7 macrophages
Type: cell-based
Conditions: Mus musculus, RAW264.7; RAW 264.7 cells stably expressing 3× NFκB response element luciferase reporter; 2 hour pretreatment, 200 ng/ml LPS for 3 hours; 6 dose point titrations in triplicate
Protocol: RAW 264.7 cells stably expressing a 3× NFκB response element-drive luciferase reporter were seeded into 96 well plates in sera-free medium (Optimen) 18 hours prior to compound application. Compounds of the invention were prepared by first making 100 mM stock solutions in EtOH. Stock solutions were then diluted 1:100 in low LPS FBS (Gemini BenchMark 100-106), mixed vigorously and allowed to incubate at room temperature for 30 minutes. 1:2 serial dilutions were then made in FBS supplemented with 1% EtOH, mixed vigorously, and again allowed to incubate at room temperature for 30 minutes before adding to RAW 264.7 reporter cells (final concentrations: 10% FBS, 100 uM highest compound dilution, 0.1% EtOH) for a 2 hour pretreatment prior to stimulation with LPS. Cells were then stimulated with 200 ng/ml LPS or vehicle control for 3 hours in the presence of the compounds of the invention. A set of six vehicles was left unstimulated with LPS in order to measure the assay floor. […] After the 3 h incubation period with LPS, cell viability was measured by reading fluorescence (excitation 550 nm, emission 595 nm) with a Perkin Elmer Victor V plate reader. […] Luciferase activity was measured with the Perkin Elmer Victor V plate reader. NF-κB activity was expressed as a percent of the vehicle control wells (stimulated with LPS). […]

IC50: 18 µM
Structure (SMILES): CC/C=C\C/C=C\C/C=C\C/C=C\C/C=C\C/C=C\CCC(=O)N1C[C@H](C)C[C@@](C)(O)[C@H](O)[C@@H](C)[C@H](O)[C@@H](C)C(=O)O[C@H](CC)[C@@](C)(O)[C@H](O)[C@H]1C [Ia-3, (2R,3S,4R,5R,8R,10R,11R,12S,13S,14R)-6-((4Z,7Z,10Z,13Z,16Z,19Z)-docosa-4,7,10,13,16,19-hexaenoyl)-2-ethyl-3,4,10,11,13-pentahydroxy-3,5,8,10,12,14-hexamethyl-1-oxa-6-azacyclopentadecan-15-one]
